From paper PMC10934055, “α-Glucosidase Inhibitory Phytochemical Components of Chinese Endemic Plant Whitfordiodendron filipes var. tomentosum” (Plants, 2024)
Where two headings read alike, the source gives them in different places.

How the values were obtained:
[1] = molecular target: T1, α-Glucosidase (Saccharomyces cerevisiae, UniProt P53341); test: biochemical; details: for inhibition at 2 µg/mL / inhibition at 4 µg/mL / inhibition at 6 µg/mL / inhibition at 8 µg/mL / inhibition at 10 µg/mL: read-out: α-glucosidase inhibition rate;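 on all read-outs here: yeast α-glucosidase premixed with inhibitor in phosphate buffer for 15 min at 37 °C, then a further 15 min reaction with p-NPG substrate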
T1 construct: purchased Sigma (Sigma-Aldrich) G5003

[2] = molecular target: α-glucosidase; details: read-out: IC50 (α-glucosidase inhibitory activity), cited from earlier work
[3] = read-out: IC50 (α-glucosidase inhibitory bioassay), baker's yeast α-glucosidase, p-NPG, pH 6.86, 37 °C

T1 sequence (P53341 whole entry): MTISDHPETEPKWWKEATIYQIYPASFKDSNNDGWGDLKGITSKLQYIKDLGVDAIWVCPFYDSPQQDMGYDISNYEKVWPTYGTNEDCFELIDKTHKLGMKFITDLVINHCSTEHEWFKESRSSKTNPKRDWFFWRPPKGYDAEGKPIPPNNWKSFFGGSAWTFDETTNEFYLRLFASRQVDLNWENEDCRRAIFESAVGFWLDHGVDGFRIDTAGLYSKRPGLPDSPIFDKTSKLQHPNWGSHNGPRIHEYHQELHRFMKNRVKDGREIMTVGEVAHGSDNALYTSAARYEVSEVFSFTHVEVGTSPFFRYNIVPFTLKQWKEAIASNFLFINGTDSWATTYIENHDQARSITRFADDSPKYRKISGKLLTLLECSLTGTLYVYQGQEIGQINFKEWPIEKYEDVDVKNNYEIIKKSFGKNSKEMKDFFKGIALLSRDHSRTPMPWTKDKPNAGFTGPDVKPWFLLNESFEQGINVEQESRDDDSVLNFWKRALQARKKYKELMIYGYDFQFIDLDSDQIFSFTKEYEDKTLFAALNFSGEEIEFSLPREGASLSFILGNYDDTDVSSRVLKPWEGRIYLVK

| Structure (SMILES) | inhibition at 2 µg/mL [1] | inhibition at 4 µg/mL [1] | inhibition at 6 µg/mL [1] | inhibition at 8 µg/mL [1] | inhibition at 10 µg/mL [1] | IC50 ([2]; compound isolated from Buddleja saligna) | IC50 [1] | α-glucosidase inhibitory activity (judgement in words) [1] | inhibition at 2 µg/mL ([1]; concentration 2.0 μg·mL-1) | inhibition at 4 µg/mL ([1]; concentration 4.0 μg·mL-1) | inhibition at 6 µg/mL ([1]; concentration 6.0 μg·mL-1) | inhibition at 8 µg/mL ([1]; concentration 8.0 μg·mL-1) | inhibition at 10 µg/mL ([1]; concentration 10.0 μg·mL-1) | IC50 [1, 3] | IC50 ([2]; compounds isolated from Coffea canephora) | IC50 ([1]; baker's yeast α-glucosidase, p-NPG, pH 6.86, 37 °C, read-out: IC50 (α-glucosidase inhibitory bioassay)) | IC50 ([2]; compound isolated from Sabia parviflora) |
| --- | --- | --- | --- | --- | --- | --- | --- | --- | --- | --- | --- | --- | --- | --- | --- | --- | --- |
| C[C@H]1O[C@H](O[C@H]2[C@H](O)[C@@H](O)[C@@H](O[C@H]3[C@H](O)[C@@H](O)C(O)O[C@@H]3CO)O[C@@H]2CO)[C@H](O)[C@@H](O)[C@@H]1N[C@H]1C=C(CO)[C@@H](O)[C@H](O)[C@H]1O (stereo partly shown) [acarbose, reference compound] | 11.1% | 25.3% | 37.9% | 52.4% | 65.7% | – | – | – | – | – | – | – | – | – | – | – | – |
| C=C(C)[C@@H]1CC[C@]2(C(=O)O)CC[C@]3(C)[C@H](CC[C@@H]4[C@@]5(C)CCC(=O)C(C)(C)[C@@H]5CC[C@]43C)[C@@H]12 [Compound 6, betulonic acid] | – | – | – | – | – | 60.1 µM | 17.2 ± 0.27 µM | significant inhibitory activities | 10.1% | 24.3% | 38.2% | 51.7% | 60.5% | – | – | – | – |
| CCC(CC[C@@H](C)[C@H]1CC[C@H]2[C@@H]3CCC4=CC(=O)CC[C@]4(C)[C@H]3CC[C@]12C)C(C)C (stereo partly drawn) [Compound 9, (20R)-24-ethylcholest-4-en-3-one] | 6.1% | 8.3% | 12.2% | 15.6% | 17.5% | – | – | – | – | – | – | – | – | < 100 µM | – | – | – |
| CC[C@H](/C=C/[C@@H](C)[C@H]1CC[C@H]2[C@@H]3CC=C4C[C@@H](O)CC[C@]4(C)[C@H]3CC[C@]12C)C(C)C [Compound 10, stigmasterol] | 2.4% | 4.3% | 7.1% | 9.6% | 10.1% | – | – | – | – | – | – | – | – | < 100 µM | – | – | – |
| CC1(C)CC[C@]2(C(=O)O)CC[C@]3(C)C(=CC[C@@H]4[C@@]5(C)CC[C@H](O)C(C)(C)[C@@H]5CC[C@]43C)[C@@H]2C1 [Compound 2, oleanolic acid] | – | 27.8% | 39.9% | – | 61.5% | – | – | significant inhibitory activities | – | – | – | – | – | – | – | – | – |
| CC(C)(O)[C@@H]1CC[C@]2(C)CC[C@]3(C)[C@H](CC[C@@H]4[C@@]5(C)CC[C@H](O)C(C)(C)[C@@H]5CC[C@]43C)[C@@H]12 [Compound 3, monogynol A] | – | – | – | – | – | – | – | inactive | 2.2% | 3.1% | 3.4% | 3.4% | 4.3% | – | – | – | – |
| CC(=O)O[C@H]1CC[C@]2(C)[C@H]3CC[C@@H]4[C@@H]([C@@](C)(O)CCC=C(C)C)CC[C@@]4(C)[C@]3(C)CC[C@H]2C1(C)C [Compound 8, dammar-24-ene-3β-acetoxy-20S-ol] | – | – | – | – | – | – | – | – | 3.7% | 6.2% | 8.1% | 10.2% | 11.1% | < 100 µM | – | – | – |
| CC(=O)O[C@H]1CC[C@]2(C)[C@H]3CC=C4[C@@H]5CC(C)(C)CC[C@]5(C(=O)O)CC[C@@]4(C)[C@]3(C)CC[C@H]2C1(C)C [Compound 1, 3-acetyloleanolic acid] | 10.1% | 24.3% | 38.2% | 48.3% | 56.5% | – | – | significant inhibitory activities | – | – | – | – | – | – | 146.9 ± 1.2 µM | 16.8 ± 0.23 µM | – |
| CC(C)(O)[C@@H]1CC[C@]2(C)CC[C@]3(C)[C@H](CC[C@@H]4[C@@]5(C)CCC(=O)C(C)(C)[C@@H]5CC[C@]43C)[C@@H]12 [Compound 5, 20-hydroxy-lupan-3-one] | – | – | – | – | – | – | – | inactive | 7.2% | 9.3% | 11% | 13.4% | 15.8% | < 100 µM | – | – | – |
| C=C(C)[C@@H]1CC[C@]2(C)CC[C@]3(C)[C@H](CC[C@@H]4[C@@]5(C)CC[C@H](O)C(C)(C)[C@@H]5CC[C@]43C)[C@@H]12 [Compound 4, lupeol] | – | – | – | – | – | – | 19.2 ± 0.17 µM | significant inhibitory activities | 12.5% | 25.1% | 38.6% | 49.2% | 58.4% | – | – | – | 452 ± 5.3 µM |
